Measured values taken from ChEMBL document CHEMBL5303304, “EUbOPEN Chemogenomics Library - IncuCyte” (2023).

Experiments:
Assay type in all cases: toxicity, cell-based
HEK-293T = test: Incucyte cell viability with HEK293T; conditions: human, 10 µM, compound concentration 10 uM
U2OS = test: Incucyte cell viability with U2OS; conditions: human, 10 µM, compound concentration 10 uM
Fibroblast = test: Incucyte cell viability with human fibroblast; conditions: 10 µM, compound concentration 10 uM
Further: unitless GR value; below 1 slowed growth and below 0 cell loss.

| Structure (SMILES) | Growth Rate (HEK-293T; 0 h, replicate number 1) | Growth Rate (HEK-293T; 0 h, replicate number 2) | Growth Rate (U2OS; 24 h, replicate number 1) | Growth Rate (U2OS; 24 h, replicate number 2) | Growth Rate (Fibroblast; 0 h, replicate number 2) | Growth Rate (Fibroblast; 6 h, replicate number 1) | Growth Rate (HEK-293T; 6 h, replicate number 1) | Growth Rate (HEK-293T; 6 h, replicate number 2) | Growth Rate (HEK-293T; 12 h, replicate number 1) | Growth Rate (HEK-293T; 12 h, replicate number 2) | Growth Rate (HEK-293T; 18 h, replicate number 1) | Growth Rate (HEK-293T; 18 h, replicate number 2) | Growth Rate (HEK-293T; 24 h, replicate number 1) | Growth Rate (HEK-293T; 24 h, replicate number 2) | Growth Rate (Fibroblast; 12 h, replicate number 2) | Growth Rate (Fibroblast; 18 h, replicate number 1) | Growth Rate (Fibroblast; 18 h, replicate number 2) | Growth Rate (Fibroblast; 24 h, replicate number 1) | Growth Rate (Fibroblast; 24 h, replicate number 2) | Growth Rate (Fibroblast; 6 h, replicate number 2) | also measured |
| --- | --- | --- | --- | --- | --- | --- | --- | --- | --- | --- | --- | --- | --- | --- | --- | --- | --- | --- | --- | --- | --- |
| O=C(NCc1cccc(O)c1)Nc1nc(-c2ccncc2)cs1 | -0.16 | -0.82 | 0.88 | 1 | -0.55 | -1 |  |  |  |  |  |  |  |  |  |  |  |  |  |  | Growth Rate (U2OS; 0 h, replicate number 2): -0.94 |
| CNC(=O)c1cccc(-c2ccc3c(N4CCOC[C@@H]4C)nc(N4CCOC[C@@H]4C)nc3n2)c1 [VISTUSERTIB] |  |  | 0.56 |  | -0.6 |  | -0.56 | -0.82 | -0.41 | -0.55 | -0.28 | -0.39 | -0.18 | -0.28 | 0.26 | 0.78 | 0.18 | 0.66 | 0.33 |  | Growth Rate (U2OS; 0 h, replicate number 1): 0.02; Growth Rate (U2OS; 6 h, replicate number 1): 0.98; Growth Rate (U2OS; 18 h, replicate number 1): 0.93 |
| Nc1n[nH]c2nc(-c3ccc(NS(=O)(=O)c4cccc(Cl)c4Cl)cc3)cnc12 |  |  |  |  | -0.78 | -0.19 | 0.93 | 0.42 | 0.83 | 0.81 |  | 0.84 |  | 0.95 |  |  |  |  |  | -1 | Growth Rate (U2OS; 0 h, replicate number 1): 0.36; Growth Rate (Fibroblast; 0 h, replicate number 1): 0.67; Growth Rate (Fibroblast; 12 h, replicate number 1): -0.95 |
| CCn1c(-c2nonc2N)nc2c(C#CC(C)(C)O)ncc(OCC3CCCNC3)c21 (configuration not stated) | 0.09 | 0.47 | 0.96 | 0.9 |  |  | -0.57 | -0.49 | -0.65 | -0.05 | -0.26 | 0.15 | -0.03 | 0.13 | 0.5 | -0.63 | 0.47 | 0.21 | 0.58 | -0.99 | Growth Rate (U2OS; 6 h, replicate number 2): 0.47; Growth Rate (U2OS; 12 h, replicate number 2): 0.86; Growth Rate (U2OS; 18 h, replicate number 2): 0.84; Growth Rate (Fibroblast; 0 h, replicate number 1): -0.85 |
| Cc1nccn1-c1ccc(Sc2cccc(C3(C(N)=O)CCOCC3)c2)cc1 |  |  | 0.88 | 0.81 | 0.46 | 0.34 | 0.3 | -0.79 | 0.47 | -0.38 | 0.41 | -0.09 | 0.4 | 0.1 | 0.59 | 0.33 | 0.72 | 0.45 | 0.71 | -0.58 | Growth Rate (U2OS; 6 h, replicate number 2): 0.9; Growth Rate (U2OS; 12 h, replicate number 1): 0.88; Growth Rate (U2OS; 12 h, replicate number 2): 0.71; Growth Rate (U2OS; 18 h, replicate number 2): 0.78; Growth Rate (Fibroblast; 12 h, replicate number 1): 0.28 |
